Results from article PMC7279231 (International Journal of Molecular Sciences, 2020).
Read-outs that look alike come from different tables or passages of the source.

Key:
[1] = cited from earlier work
HepG2 cells [2] = assay: Cytotoxicity over the MTT, NRU, TPC and LDH assays, HepG2; format: cell-based, human; conditions: HepG2, up to 1 μM, Figure S5
Method: (§1) The human hepatoma cell line (HepG2) was purchased from the American Type Culture Collection (ATCC HB-8065). These cells were cultured in Minimum Essential Medium Eagle (MEME) (ATCC). The murine fibroblast cell line (Balb/c 3T3 clone A31) was purchased from the American Type Culture Collection (ATCC CCL-163), and the cells were cultured in Dulbecco’s Modified Eagle’s Medium (DMEM) (ATCC). The media were supplemented with 10% BCS (Balb/c 3T3), 10% FBS (HepG2), 1% L-glutamine, and 1% antibiotic solution. The cells were maintained in 75-cm^2 cell culture flasks (NUNC, Roskilde, Denmark) in a humidified incubator, NuAire (Plymouth, MN, USA) at 37 °C and 5% CO2. […]
(§2) As a control, cultured cells were grown in the absence of the studied compounds. […] Cytotoxicity was assessed after 72 h of cell exposure to the compounds in darkness. […]
(§3) MTT assay. The metabolic activity of living cells was assessed by the measurement of the activity of dehydrogenases. […] The plate was shaken for 15 min at room temperature and transferred to a microplate reader (Synergy HTX multi-mode reader (BioTek® Instruments Inc., Winooski, VT, USA)) to measure the absorbance at 570 nm, using a blank as a reference. Cytotoxicity was expressed as a percentage of the negative control (0.1% DMSO).
(§4) NRU assay. […] Cytotoxicity was expressed as a percentage of the negative control (0.1% DMSO). […]

Balb/c 3T3 fibroblasts [3] = assay: Cytotoxicity over the MTT, NRU, TPC and LDH assays, Balb/c 3T3; format: cell-based, murine; conditions: Balb/c 3T3, up to 1 μM, Figure S5
Method: as §1, §2, §3, §4

[4] = test system: human cancer cells (breast, bladder, colorectal cancer cell lines, acute myelogenous leukemia, osteosarcoma cells); design: method as in PMID 26286663; conditions: cited from earlier work
Balb/c 3T3 fibroblasts [5] = assay: NRU assay (lysosomal activity), Balb/c 3T3; format: cell-based, murine
Method: (§5) The human hepatoma cell line (HepG2) was purchased from the American Type Culture Collection (ATCC HB-8065). These cells were cultured in Minimum Essential Medium Eagle (MEME) (ATCC). The murine fibroblast cell line (Balb/c 3T3 clone A31) was purchased from the American Type Culture Collection (ATCC CCL-163), and the cells were cultured in Dulbecco’s Modified Eagle’s Medium (DMEM) (ATCC). The media were supplemented with 10% BCS (Balb/c 3T3), 10% FBS (HepG2), 1% L-glutamine, and 1% antibiotic solution. The cells were maintained in 75-cm^2 cell culture flasks (NUNC, Roskilde, Denmark) in a humidified incubator, NuAire (Plymouth, MN, USA) at 37 °C and 5% CO2. The medium was refreshed every two days and the cells were trypsinized by 0.25% trypsin–0.02% EDTA after reaching 70–80% confluence. Then, cell suspensions at a density of 2 × 10^5 cells/mL (HepG2) and 5 × 10^4 cells/mL (Balb/c 3T3) were transferred to 96-well plates (100 μL/well) and incubated for 24 h before the exposure to the studied compounds.
(§6) As a control, cultured cells were grown in the absence of the studied compounds. Each concentration was tested in six replicates in three independent experiments. Cytotoxicity was assessed after 72 h of cell exposure to the compounds in darkness. The medium was not changed during the incubation time.
(§7) NRU assay. This method is based on staining living cells with neutral red which readily diffuses through the plasma membrane and accumulates in lysosomes. After the incubation, the medium containing the drug was removed, and the cells were washed with PBS. Then, 100 μL/well of NR solution (50 μg/mL) was added for 3 h. After this time, the cells were washed with PBS. The dye from viable cells was released by extraction with a mixture of acetic acid, ethanol, and water (1:50:49, v:v:v). After 10 min of shaking, the absorbance of the dissolved NR was measured using a Synergy HTX multi-mode reader (BioTek® Instruments Inc., Winooski, VT, USA) at 540 nm using a blank as a reference. Cytotoxicity was expressed as a percentage of the negative control (0.1% DMSO).
(§8) The study was performed in three independent experiments. […] Assessment of the cytotoxicity data used a one-way analysis of variance (ANOVA) followed by Dunnett’s post-hoc test, which was applied to determine significance relative to the negative control. The cytotoxicity concentration (IC20 and IC50) necessary for 20% and 50% inhibition of cell viability, respectively, by the drug was calculated using GraphPad Prism 5.0. Statistical comparisons among IC50 values were performed by the analysis of variance (ANOVA) followed by the Tukey test, and differences were considered statistically significant at p ≤ 0.05.

Balb/c 3T3 fibroblasts [6] = assay: LDH leakage assay (cellular membrane integrity), Balb/c 3T3; format: cell-based, murine
Method: as §5, §6
(§9) LDH leakage assay. The integrity of the plasma membrane was assessed through the test of lactate dehydrogenase (LDH) release, which was monitored using the commercially available Cytotoxicity Detection Kit (LDH) (Roche Diagnostics, Warsaw, Poland). The medium (100 μL/well) without cells was transferred into the corresponding wells of an optically clear 96-well flat-bottom microplate, and 100 μL of reaction mixture was added to each well. Then, the plates were incubated for 30 min at room temperature in darkness. After that time, 50 μL/well of 1 M HCl was added to stop the reaction. The absorbance was measured at 492 nm in a microplate reader (Synergy HTX multi-mode reader (BioTek® Instruments Inc., Winooski, VT, USA)) using a blank as a reference.
as §8

HepG2 cells [7] = assay: LDH leakage assay (cellular membrane integrity), HepG2; format: cell-based, human
Method: as §5, §6
as §9, with “reference. […]” for “reference.”

HepG2 cells [8] = assay: TPC assay (total protein content), HepG2; format: cell-based, human
Method: as §5, §6
(§10) TPC assay. The assay was based upon staining total cellular protein (proliferation). After the incubation, the medium containing drug was removed and 100 μL of Coomassie brilliant blue R-250 dye was added to each well. The plate was shaken for 10 min. Then, the stain was removed and the cells were rinsed twice with 100 μL of washing solution (glacial acetic acid/ethanol/water, 5:10:85, v:v:v). After that, 100 μL of the desorbing solution (1 M potassium acetate) was added, and plates were shaken again for 10 min. The absorbance was measured at 595 nm in a microplate reader (Synergy HTX multi-mode reader (BioTek® Instruments Inc., Winooski, VT, USA)) using a blank as a reference. Cytotoxicity was expressed as a percentage of the negative control (0.1% DMSO).
as §8

Balb/c 3T3 fibroblasts [9] = assay: TPC assay (total protein content), Balb/c 3T3; format: cell-based, murine
Method: as §5, §6, §10, §8

HepG2 cells [10] = assay: NRU assay (lysosomal activity), HepG2; format: cell-based, human
Method: as §5, §6, §7, §8

HepG2 cells [11] = assay: MTT assay (mitochondrial activity), HepG2; format: cell-based, human
Method: as §5, §6
(§11) MTT assay. The metabolic activity of living cells was assessed by the measurement of the activity of dehydrogenases. After incubation of the cells with the study compound, 10 μL of the MTT solution (5 mg/mL in phosphate buffered saline (PBS)) was added to each well of the 96-well plate and incubated. After 3 h, the MTT solution was removed, and intracellular formazan crystals were dissolved in 100 μL DMSO. The plate was shaken for 15 min at room temperature and transferred to a microplate reader (Synergy HTX multi-mode reader (BioTek® Instruments Inc., Winooski, VT, USA)) to measure the absorbance at 570 nm, using a blank as a reference. Cytotoxicity was expressed as a percentage of the negative control (0.1% DMSO).
as §8

Balb/c 3T3 fibroblasts [12] = assay: MTT assay (mitochondrial activity), Balb/c 3T3; format: cell-based, murine
Method: as §5, §6, §11, §8

[13] = Balb/c 3T3, NRU, 72 h exposure, mean (n = 3) ± SD
[14] = Balb/c 3T3, LDH, 72 h exposure, mean (n = 3) ± SD
[15] = HepG2, TPC, 72 h exposure, mean (n = 3) ± SD
[16] = Balb/c 3T3, TPC, 72 h exposure, mean (n = 3) ± SD
[17] = HepG2, NRU, 72 h exposure, mean (n = 3) ± SD
[18] = HepG2, MTT, 72 h exposure, mean (n = 3) ± SD
[19] = Balb/c 3T3, MTT, 72 h exposure, mean (n = 3) ± SD

Q: What does the source list for Clc1ccc(COC(Cn2ccnc2)c2ccc(Cl)cc2Cl)c(Cl)c1 (stereo not shown) [Miconazole, 1-[2-(2,4-dichlorobenzyloxy)-2-(2,4-dichlorophenyl)ethyl]-1H-imidazole]?
A: solubility ([1]; ethanol): soluble; solubility ([1]; methanol): hardly soluble; solubility ([1]; water): practically insoluble; toxicity to the cell line (in words) (HepG2 cells [2]): not toxic; toxicity to the cell line (in words) (Balb/c 3T3 fibroblasts [3]): not toxic; concentration inhibiting the proliferation of human cancer cells [4]: ≤ 10 µM

Q: With N.N.[Cl][Pt][Cl] [Cisplatin, cis-diamminedichloroplatinum(II)] as the compound, how does the IC20 (Balb/c 3T3 fibroblasts [5]; [13]) read?
A: > 1000 nM

Q: What about the IC50 (Balb/c 3T3 fibroblasts [5]; [13]) of the same compound?
A: > 1000 nM

Q: And the IC20 (Balb/c 3T3 fibroblasts [6]; [14])?
A: > 1000 nM

Q: And the IC50 (Balb/c 3T3 fibroblasts [6]; [14])?
A: > 1000 nM

Q: What about the IC50 (HepG2 cells [7]; HepG2, LDH, 72 h exposure, mean (n = 3) ± SD) of the same compound?
A: 10 ± 1 nM

Q: And the IC20 (HepG2 cells [8]; [15])?
A: < 0.1 nM

Q: What about the IC50 (HepG2 cells [8]; [15]) of the same compound?
A: > 1000 nM

Q: What about the IC20 (Balb/c 3T3 fibroblasts [9]; [16]) of the same compound?
A: > 1000 nM

Q: And the IC50 (Balb/c 3T3 fibroblasts [9]; [16])?
A: > 1000 nM

Q: And the IC20 (HepG2 cells [10]; [17])?
A: < 0.1 nM

Q: And the IC50 (HepG2 cells [10]; [17])?
A: > 1000 nM

Q: What about the IC20 (HepG2 cells [11]; [18]) of the same compound?
A: < 0.1 nM

Q: What about the IC50 (HepG2 cells [11]; [18]) of the same compound?
A: > 1000 nM

Q: And the IC20 (Balb/c 3T3 fibroblasts [12]; [19])?
A: > 1000 nM

Q: And the IC50 (Balb/c 3T3 fibroblasts [12]; [19])?
A: > 1000 nM

Q: For O=[N+]([O-])[O-].[Ag+] [AgNO3, Silver nitrate], which IC20 (Balb/c 3T3 fibroblasts [5]) is on record?
A: > 1000 nM

Q: What about the IC50 (Balb/c 3T3 fibroblasts [5]) of the same compound?
A: > 1000 nM

Q: What about the IC20 (Balb/c 3T3 fibroblasts [6]) of the same compound?
A: > 1000 nM

Q: What about the IC50 (Balb/c 3T3 fibroblasts [6]) of the same compound?
A: > 1000 nM

Q: What about the IC20 (HepG2 cells [7]) of the same compound?
A: > 1000 nM

Q: What about the IC50 (HepG2 cells [7]) of the same compound?
A: > 1000 nM

Q: What about the IC20 (HepG2 cells [8]) of the same compound?
A: > 1000 nM

Q: What about the IC50 (HepG2 cells [8]) of the same compound?
A: > 1000 nM

Q: What about the IC20 (Balb/c 3T3 fibroblasts [9]) of the same compound?
A: > 1000 nM

Q: And the IC50 (Balb/c 3T3 fibroblasts [9])?
A: > 1000 nM

Q: And the IC20 (HepG2 cells [10])?
A: > 1000 nM

Q: What about the IC50 (HepG2 cells [10]) of the same compound?
A: > 1000 nM

Q: And the IC20 (HepG2 cells [11])?
A: > 1000 nM

Q: And the IC50 (HepG2 cells [11])?
A: > 1000 nM

Q: And the IC20 (Balb/c 3T3 fibroblasts [12])?
A: > 1000 nM

Q: What about the IC50 (Balb/c 3T3 fibroblasts [12]) of the same compound?
A: > 1000 nM
